From patent publication US20110319329A1, “USE OF SO[…] IN CLUSTER HEADACHE” (priority 2007, published 2011)
Read-outs that look alike come from different tables or passages of the source. Numbered stars: 1 amine (or outer) side, 2 acyl side, 3 side chain; on linkers, the order of the positions; unused ones are H or OH. Square brackets hold non-standard residues; d marks the D form. Side chains are listed from the residue outwards. Peptide text beside a SMILES is read from it. * marks the point of attachment. Ethylenediamine = C(CN[*:2])N[*:1]; Hyp = O=C(O)[C@@H]1C[C@@H](O)CN1; Phg = N[C@H](C(=O)O)c1ccccc1; CO = O=C([*:1])[*:2]; Bn = c1ccc(C*)cc1

Key:
[1] = partition coefficient (lipophilicity)
[2] = cited from earlier work

| Molecule | logP [1] | half-life ([2]; octapeptide analog, can be given subcutaneously) | half-life ([2]; native somatostatin, necessitates intravenous infusion) |
| --- | --- | --- | --- |
| NCCCC[C@@H]1NC(=O)[C@@H](Cc2c[nH]c3ccccc23)NC(=O)[C@H](c2ccccc2)NC(=O)[C@@H]2C[C@@H](OC(=O)NCCN)CN2C(=O)[C@H](Cc2ccccc2)NC(=O)[C@H](Cc2ccc(OCc3ccccc3)cc2)NC1=O [pasireotide, cyclo[{4-(NH2—C2H4—NH—CO—O-)Pro}-Phg-DTrp-Lys-Tyr(4-Bzl)-Phe]] (cyclo([Hyp]([CO-Ethylenediamine])[Phg][dW]KY(Bn)F); ring closure inferred) | 2.7 |  |  |
| C[C@@H](O)[C@@H]1NC(=O)[C@H](CCCCN)NC(=O)[C@@H](Cc2c[nH]c3ccccc23)NC(=O)[C@H](Cc2ccccc2)NC(=O)[C@@H](NC(=O)[C@H](N)Cc2ccccc2)CSSC[C@@H](C(=O)N[C@H](CO)[C@@H](C)O)NC1=O [octreotide] | 5.5 | approximately 1.5 hours |  |
| somatostatin |  |  | several minutes |
